EC50 data for 38 molecules are collected here from patent publication US9120779B2, “Inhibitors of HCV NS5A” (PRESIDIO PHARMACEUTICALS, INC., priority 2008, dated 2015).

pEC50: −log10 of the molar value.

One experiment deals with HCV genotype 1b replicon in Huh 7 cells. Put plainly: HCV replicon assay (luciferase readout, 1b_Huh-Luc/Neo-ET cell line). Format: cell-based. Conditions: Hepatitis C virus, Huh-7, 72 h, read-out: Inhibition of HCV genotype 1b, Table 1, 72 h incubation. The method, boiled down:
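Huh 7 cells carrying a bicistronic genotype 1b luciferase replicon treated with compound in triplicate for 72 h. Replicon level read as luciferase activity (Bright-Glo), expressed as % of control; EC50 from a sigmoidal Hill-slope fit, repeated several times.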
For orientation: Replicon systems follow genome replication, usually without infectious particles.
In the case of `CC(C)(C)OC(=O)N[C@@H](C(=O)N1CCC[C@H]1C(=O)NC1CCC(c2ccc(-c3cnc([C@@H]4COCCN4C(=O)[C@H](NC(=O)OC(C)(C)C)c4ccccc4)[nH]3)cc2)CC1)c1ccccc1` (some centres unmarked) [compound 368], the pEC50 is more than 9.00. Same read-out and setting: the same measure for `O=C(N[C@H]1CC[C@@H](c2cccc(-c3cnc([C@@H]4CCCN4C(=O)[C@H](NC(=O)N4CCOCC4)c4ccccc4)[nH]3)c2)CC1)[C@@H]1CCCN1C(=O)[C@H](NC(=O)N1CCOCC1)c1ccccc1` [compound 365]: 8.00 to 9.00; for `COC(=O)N[C@@H](C(=O)N1CCC[C@H]1c1ncc(C2CCC(c3ccc(-c4cnc([C@@H]5CCCN5C(=O)[C@@H](c5ccccc5)N(C)C)[nH]4)cc3)CC2)[nH]1)c1ccccc1` (some centres unmarked) [compound 377]: more than 9.00.

`COC(=O)N[C@@H](C(=O)N1CCC[C@H]1c1ncc(-c2ccc([C@H]3CC[C@@H](NC(=O)[C@@H]4CCCN4C(=O)[C@H](NC(=O)N4CCOCC4)c4ccccc4)CC3)cc2)[nH]1)c1ccccc1` [compound 370]: the pEC50 was 8.00 to 9.00. Same read-out and setting: the same measure for `CN1CCN(C(=O)N[C@@H](C(=O)N2CCC[C@H]2c2ncc(-c3ccc(C4CCC(c5cnc([C@@H]6CCCN6C(=O)[C@H](NC(=O)N6CCN(C)CC6)c6ccccc6)o5)CC4)cc3)[nH]2)c2ccccc2)CC1` (some centres unmarked) [compound 359]: 8.00 to 9.00.

For the molecule `COC(=O)N[C@@H](C(=O)N1CCC[C@H]1c1ncc(-c2ccc(C3CCC(c4cnc([C@@H]5CCCN5C(=O)[C@H](NC(=O)OC)c5ccccc5)[nH]4)CC3)cc2)[nH]1)c1ccccc1` (some centres unmarked) [compound 373], the pEC50 is more than 9.00. Still for that read-out and setting: the same measure for `O=C(N[C@@H](C(=O)N1CCC[C@H]1C(=O)N[C@H]1CC[C@H](c2ccc(-c3cnc([C@@H]4CCCN4C(=O)[C@H](NC(=O)C4CC4)c4ccccc4)[nH]3)cc2)CC1)c1ccccc1)C1CC1` [compound 350]: more than 9.00; for `COC(=O)N[C@H](C(=O)N1CCC[C@H]1c1ncc([C@H]2CC[C@H](c3ccc(-c4cnc([C@@H]5CCCN5C(=O)[C@H](NC(=O)OC)c5ccccc5)[nH]4)cc3)CC2)[nH]1)C(C)C` [compound 2002]: more than 9.00.

The experiment is the same for the next values; noted with them: Hepatitis C virus, Huh-7, 72 h, read-out: Inhibition of HCV genotype 1b, Table 3, 72 h incubation.
In the case of `COC(=O)N[C@@H](C(=O)N1CCC[C@H]1c1ncc(-c2cc(F)c(N3CCC(c4cnc([C@@H]5CCCCN5C(=O)[C@H](NC(=O)OC)c5ccccc5)[nH]4)CC3)c(F)c2)[nH]1)c1ccccc1` [compound 487], the pEC50 is more than 9.00. Same read-out and setting: the same measure for `COC(=O)N[C@@H](C(=O)N1CCC[C@H]1c1ncc(-c2cc(F)c(N3CCC(c4cnc([C@@H]5CCCCN5C(=O)[C@@H](c5ccccc5)N5CCCCC5)[nH]4)CC3)c(F)c2)[nH]1)c1ccccc1` [compound 496]: more than 9.00; for `COC(=O)N[C@H](C(=O)N1CCC[C@H]1c1ncc(C2CCN(c3c(F)cc(-c4cnc([C@@H]5CCCN5C(=O)[C@H](NC(=O)OC)c5ccccc5)[nH]4)cc3F)CC2)[nH]1)C(C)C` [compound 490]: more than 9.00; for `COC(=O)N[C@H](C(=O)N[C@@H](C)c1ncc(-c2cc(F)c(N3CCC(c4cnc([C@@H]5CCCN5C(=O)[C@@H](NC(=O)OC)C(C)C)[nH]4)CC3)c(F)c2)[nH]1)C(C)C` [compound 519]: more than 9.00. Turning to `COC(=O)N[C@@H](C(=O)N1CCC[C@H]1c1ncc(-c2cc(F)c(N3CCC(c4cnc([C@@H]5CCCN5C(=O)[C@@H](c5ccccc5)N5CCCCC5)[nH]4)CC3)c(F)c2)[nH]1)c1ccccc1` [compound 469], the pEC50 was more than 9.00. Still for that read-out and setting: the same measure for `O=C(N[C@@H](C(=O)N1CCC[C@H]1C(=O)NC1CCN(c2ccc(-c3cnc([C@@H]4CCCN4C(=O)[C@H](NC(=O)C4CC4)c4ccccc4)[nH]3)cc2F)CC1)c1ccccc1)C1CC1` [compound 456]: more than 9.00. Same read-out and setting: the same measure for `COC(=O)N[C@@H](C(=O)N1CCC[C@H]1c1ncc(-c2cc(F)c(N3CCC(c4cnc([C@@H]5CCCN5C(=O)[C@@H](c5ccccc5)N5CCCC5)[nH]4)CC3)c(F)c2)[nH]1)c1ccccc1` [compound 475]: more than 9.00; for `COC(=O)N[C@H](C(=O)N(C)[C@@H](C)c1ncc(C2CCN(c3c(F)cc(-c4cnc([C@@H]5CCCN5C(=O)[C@@H](NC(=O)OC)C(C)C)[nH]4)cc3F)CC2)[nH]1)C(C)C` [compound 505]: more than 9.00.

Staying with this experiment, now noted: Hepatitis C virus, Huh-7, 72 h, read-out: Inhibition of HCV genotype 1b, Table 4, 72 h incubation.
Take `COC(=O)N[C@H](C(=O)N1CCC[C@H]1c1nc2ccc(-c3ccc(-c4ccc5nc([C@@H]6CCCN6C(=O)[C@@H](NC(=O)OC)C(C)C)[nH]c5c4)nc3)cc2[nH]1)C(C)C` [compound 556]: the pEC50 is more than 9.00. Same read-out and setting: the result for `COC(=O)N[C@H](C(=O)N[C@@H](C)c1nc2ccc(-c3ccc(-c4ccc5nc([C@@H]6CCCN6C(=O)[C@H](C(C)C)N(C)C)[nH]c5c4)cc3)cc2[nH]1)C(C)C` [compound 937] reads 8.00 to 9.00.

Staying with this experiment, now noted: Hepatitis C virus, Huh-7, 72 h, read-out: Inhibition of HCV genotype 1b, Table 5, 72 h incubation.
Take `CCNC(=O)N[C@@H](C(=O)N1CCC[C@H]1c1ncc(C23CCC(c4ccc(-c5cnc([C@@H]6CCCN6C(=O)[C@@H](NC(=O)OC)C(C)C)[nH]5)cc4)(CC2)CC3)[nH]1)c1ccccc1` [compound 2090]: the pEC50 was more than 9.00. The same measure, in the same setting: the same measure for `COC(=O)N[C@H](C(=O)N1CCC[C@H]1c1ncc(-c2ccc(C34CCC(c5cnc([C@@H]6CCCN6C(=O)[C@H](NC(=O)OC(C)(C)C)c6ccccc6)[nH]5)(CC3)CC4)cc2)[nH]1)C(C)C` [compound 626]: more than 9.00; for `COC(=O)N[C@H](C(=O)N1CCC[C@H]1c1ncc(-c2ccc(C34CCC(c5cnc([C@@H]6CCCN6C(=O)[C@H](NC(=O)OC6CCOCC6)c6ccccc6)[nH]5)(CC3)CC4)cc2)[nH]1)C(C)C` [compound 2108]: more than 9.00.

In the case of `CC(C)[C@H](C(=O)N1CCC[C@H]1c1ncc(-c2ccc(C34CCC(c5cnc([C@@H]6CCCN6C(=O)[C@@H](C(C)C)N(C)C)[nH]5)(CC3)CC4)cc2)[nH]1)N(C)C` [compound 920], the pEC50 is 6.00 to 8.00. Still for that read-out and setting: the result for `COC(=O)N[C@@H](C(=O)N1CCC[C@H]1c1ncc(C23CCC(c4ccc(-c5cnc([C@@H]6CCCN6C(=O)[C@H](NC(=O)C6CC6)c6ccccc6)[nH]5)cc4)(CC2)CC3)[nH]1)c1ccccc1` [compound 625] reads more than 9.00. The same measure, in the same setting: the result for `CCC(CC)[C@H](NC(=O)OC)C(=O)N1CCC[C@H]1c1ncc(-c2ccc(C34CCC(c5cnc([C@@H]6CCCN6C(=O)[C@@H](NC(=O)OC)C(CC)CC)[nH]5)(CC3)CC4)cc2)[nH]1` [compound 910] reads more than 9.00; that for `COC(=O)N[C@H](C(=O)N1CCC[C@H]1c1ncc(-c2ccc(C34CCC(c5cnc([C@@H]6CCCN6C(=O)[C@@H](NC(=O)OC)C6CC6)[nH]5)(CC3)CC4)cc2)[nH]1)C1CC1` [compound 908], more than 9.00.

Take `COC(=O)N[C@H](C(=O)N1CCC[C@H]1c1ncc(-c2ccc(C34CCC(c5cnc([C@@H]6CCCN6C(=O)[C@H](C(C)C)N6CCC(O)CC6)[nH]5)(CC3)CC4)cc2)[nH]1)C(C)C` [compound 2058]: the pEC50 is more than 9.00. The same measure, in the same setting: the result for `COC(=O)N[C@H](C(=O)N1CCC[C@H]1c1ncc(-c2ccc(C34CCC(c5cnc([C@@H]6CCCN6C(=O)[C@H](NC6CCOCC6)C(C)C)[nH]5)(CC3)CC4)cc2)[nH]1)C(C)C` [compound 2055] reads more than 9.00; that for `CNC(=O)N[C@H](C(=O)N1CCC[C@H]1c1ncc(-c2ccc(C34CCC(c5cnc([C@@H]6CCCN6C(=O)[C@@H](NC(=O)OC)C(C)C)[nH]5)(CC3)CC4)cc2)[nH]1)C(C)C` [compound 2095], more than 9.00; that for `CC(C)[C@H](NC(=O)N1CC[C@H](O)C1)C(=O)N1CCC[C@H]1c1ncc(-c2ccc(C34CCC(c5cnc([C@@H]6CCCN6C(=O)[C@@H](NC(=O)N6CC[C@H](O)C6)C(C)C)[nH]5)(CC3)CC4)cc2)[nH]1` [compound 635], more than 9.00. The same measure, in the same setting: the same measure for `COC(=O)N[C@@H](CC(C)C)C(=O)N1CCC[C@H]1c1ncc(C23CCC(c4ccc(-c5cnc([C@@H]6CCCN6C(=O)[C@@H](NC(=O)OC)C(C)C)[nH]5)cc4)(CC2)CC3)[nH]1` [compound 2065]: more than 9.00; for `COC(=O)N[C@H](C(=O)N1CCC[C@H]1c1ncc(-c2ccc(C34CCC(c5cnc([C@@H]6CCCN6C(=O)[C@@H](NC(=O)OC)[C@H](C)O)[nH]5)(CC3)CC4)cc2)[nH]1)[C@H](C)O` [compound 909]: 8.00 to 9.00; for `COC(=O)N[C@H](C(=O)N[C@@H](C)c1ncc(-c2ccc(C34CCC(c5cnc([C@@H]6CCCN6C(=O)[C@@H](NC(=O)OC)C(C)C)[nH]5)(CC3)CC4)cc2)[nH]1)C(C)C` [compound 2074]: more than 9.00. Same read-out and setting: the same measure for `CCNC(=O)N[C@@H](C(=O)N1CCC[C@H]1c1ncc(-c2ccc(C34CCC(c5cnc([C@@H]6CCCN6C(=O)[C@@H](NC(=O)OC)C(C)C)[nH]5)(CC3)CC4)cc2)[nH]1)c1ccccc1` [compound 2103]: more than 9.00; for `COC(=O)N[C@H](C(=O)N1CCC[C@H]1c1ncc(C23CCC(c4ccc(-c5cnc([C@@H]6CCCN6C(=O)[C@H](NC(=O)OC6CCOCC6)C(C)C)[nH]5)cc4)(CC2)CC3)[nH]1)C(C)C` [compound 2080]: more than 9.00; for `COC(=O)N[C@H](C(=O)N1CCOC[C@H]1c1ncc(-c2ccc(C34CCC(c5cnc([C@@H]6CCCN6C(=O)[C@@H](NC(=O)OC)C(C)C)[nH]5)(CC3)CC4)cc2)[nH]1)C(C)C` [compound 2087]: more than 9.00. For the molecule `O=C(N[C@@H](C(=O)N1CCC[C@H]1CNC(=O)C12CCC(c3ccc(-c4cnc([C@@H]5CCCN5C(=O)[C@H](NC(=O)C5CC5)c5ccccc5)[nH]4)cc3)(CC1)CC2)c1ccccc1)C1CC1` [compound 602], the pEC50 was more than 9.00. As for `CC(C)[C@H](NC(=O)N1CCCCC1)C(=O)N1CCC[C@H]1c1ncc(-c2ccc(C34CCC(c5cnc([C@@H]6CCCN6C(=O)[C@@H](NC(=O)N6CCCCC6)C(C)C)[nH]5)(CC3)CC4)cc2)[nH]1` [compound 639], the pEC50 is less than 6.00.

The experiment is the same for the next values; noted with them: read-out: Inhibition of HCV genotype 1b, Table 3, 72 h incubation.
`COC(=O)N[C@@H](C(=O)N1CCC[C@H]1c1ncc(-c2cc(F)c(N3CCC(c4cnc([C@@H]5CCCN5C(=O)[C@H](NC(=O)N5CCOCC5)c5ccccc5)[nH]4)CC3)c(F)c2)[nH]1)c1ccccc1` [compound 473]: the pEC50 was more than 9.00.
